Where a SMILES comes first, the peptide text is derived from it. [ ]: non-standard residue; d: D form.
Tests used:
NK-1 receptor = target: T1, NK-1 receptor (Cavia porcellus, UniProt P30547); experiment: NK-1 receptor binding (125I-Bolton-Hunter substance P) in guinea pig lung membranes; settings: 0.1 nM 125I-Bolton-Hunter Lys-3 substance P, mean ± S.E.M.
T1 construct: tissue Keystone Biologicals, Cleveland, OH; host or cells: guinea pig lung
Experimental: (§1) Receptor binding assays were performed in crude tissue membranes. The NK-1 receptor binding affinity of proposed tachykinin antagonists was evaluated in guinea pig lungs (Keystone Biologicals, Cleveland, OH, kept frozen at -80° C. until use). Affinity for the NK-2 receptor was evaluated in HSKR-1 cells which are mouse 3T3 fibroblasts expressing the human jejunal NK-2 receptor. Tissues or cells were homogenized with a Polytron in 15 volumes of 50 mM Tris-HCl buffer (pH 7.4, 4° C.) containing 120 mM NaCl and 5 mM KCl and centrifuged at 48,000×g for 12 min. at 4° C. The pellet was resuspended in 15 volumes of 50 mM Tris-HCl buffer containing 10 mM EDTA and 300 mM KCl then set on ice for 30 min. The suspension was cetrifuged as above and the pellet washed by resuspension and cetrifugation two additional times in 50 mM Tris-HCl buffer (pH 7.4, 4° C.). The final pellet was resuspended in a concentration of 20 mg/ml in incubation buffer then kept at room temperature for at least 15 min prior to use. Receptor binding was initiated by addition of 250 μl membrane preparation (final protein concentration; lungs=286 μg/tube, HSKR-1 cells=100 μg/tube) in duplicate to 0.1 nM of the following radioligands: for NK-1 receptor assays, ^125 I-Bolton-Hunter Lys-3 labeled substance P (New England Nuclear, specific activity, 2200 Ci/mmol); for NK-2 receptor assays, ^125 iodohistidyl-1-neurokinin A (Amersham, specific activity, 2000 Ci/mmol) in a final volume of 500 μl of buffer containing 50 mM Tris-HCl (pH 7.4 at room temperature), 0.1% bovine serum albumin, 2 mM MnCl2, 40 μg/ml bacitracin, 4 μg/ml leupeptin and chymostatin, 1 μM thiorphan and various doses of the tachykinin antagonists. Incubations were performed at room temperature for 90 min (NK-1 receptor assays) or 2 hr (NK-2 receptor assays); binding was terminated by addition of 50 mM Tris-HCl buffer (pH 7.4, 4° C.) and filtration under vacuum through GF/B filters presoaked with 0.1% polyethyleneimine (NK-1 receptor assays) or 0.5% bovine serum albumin (NK-2 receptor assays). Nonspecific binding was defined as binding in the presence of 1 μM substance P (NK-1 receptor assays) or neurokinin A (NK-2 receptor assays) (Peptides International, Inc., Louisville, Ky.). Specific binding was calculated by subtracting nonspecific binding from total binding and corresponded to 70-90% of total binding. Data were analyzed and IC50 values generated by nonlinear regression using an iterative curve fitting program (GraphPAD Inplot, San Diego, Calif.). Protein was determined by the method of Lowry.

[1] = target: T2, human jejunal NK-2 receptor (Homo sapiens, UniProt P21452); experiment: NK-2 receptor binding (125I-neurokinin A) in HSKR-1 cell membranes; settings: HSKR-1 cells (mouse 3T3 fibroblasts expressing human jejunal NK-2 receptor); 0.1 nM 125I-iodohistidyl-1-neurokinin A; mean ± S.E.M.
T2 construct: expressed in transfected cells; host or cells: HSKR-1 (mouse 3T3 fibroblasts)
T2 sequence (P21452 1-398): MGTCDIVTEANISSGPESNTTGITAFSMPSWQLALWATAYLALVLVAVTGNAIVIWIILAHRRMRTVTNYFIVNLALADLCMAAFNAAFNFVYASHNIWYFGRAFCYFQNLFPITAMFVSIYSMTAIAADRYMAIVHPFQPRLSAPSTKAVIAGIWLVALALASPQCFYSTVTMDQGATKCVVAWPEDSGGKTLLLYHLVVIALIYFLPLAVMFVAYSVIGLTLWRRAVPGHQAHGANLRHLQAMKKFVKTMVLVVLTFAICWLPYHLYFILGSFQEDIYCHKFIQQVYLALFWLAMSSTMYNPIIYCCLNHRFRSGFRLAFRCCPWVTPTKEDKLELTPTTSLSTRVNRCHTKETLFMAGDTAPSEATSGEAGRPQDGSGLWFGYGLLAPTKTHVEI
Experimental: as §1

T1 sequence (P30547 whole entry): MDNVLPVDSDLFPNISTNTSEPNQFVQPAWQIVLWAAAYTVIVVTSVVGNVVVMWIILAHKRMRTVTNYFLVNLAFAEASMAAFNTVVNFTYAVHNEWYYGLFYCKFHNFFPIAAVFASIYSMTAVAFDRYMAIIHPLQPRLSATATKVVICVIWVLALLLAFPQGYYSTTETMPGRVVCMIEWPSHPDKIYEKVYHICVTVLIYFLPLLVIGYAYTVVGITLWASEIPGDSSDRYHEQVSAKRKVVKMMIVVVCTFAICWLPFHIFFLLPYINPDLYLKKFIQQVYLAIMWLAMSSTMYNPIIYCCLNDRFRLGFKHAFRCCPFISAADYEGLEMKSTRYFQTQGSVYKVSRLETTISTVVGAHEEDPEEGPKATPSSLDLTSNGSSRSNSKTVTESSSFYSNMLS

Compound: CC(C)C[C@@H]1NC(=O)[C@@H](Cc2c[nH]c3ccccc23)NC(=O)[C@H](Cc2ccc(O)cc2)NC(=O)CNC(=O)[C@H](Cc2c[nH]c3ccccc23)NC(=O)[C@H](CCCNC(=N)N)NC1=O [cyclo[Tyr--trp--Leu--Arg--Trp--Gly], cyclo[Tyr-trp-Leu-Arg-Trp-Gly]] (cyclo(GY[dW]LRW))
- IC50 (NK-1 receptor): 6190 ± 277 nM
- IC50 [1]: 6.79 ± 0.69 nM
